Here are results for 9 molecules from patent EP3119416B1, “THERAPEUTIC USE OF ADIPOKINETIC HORMONE/RED PIGMENT-CONCENTRATING HORMONE (AKH/RPCH) FAMILY OF PEPTIDES” (Mutlu, Oguz, priority 2015, dated 2017).

Square brackets hold non-standard residues; d marks the D form. Peptide text beside a SMILES is read from it. pGlu = O=C1CC[C@@H](C(=O)O)N1

In data set [1] the test system is BALB/c ByJ mice. As to the kind of experiment: Forced Swim Test (FST). The data set is classed as in vivo. The following applies: for immobility time: 60 min before test, compared to control group, Fig 1a/1b; for antidepressant effects in the forced swimming test: male balb-c mice. The procedure: (§1) Male, inbred BALB/c ByJ mice (Uludag University, Bursa, Turkey), 7-8 weeks old at their arrival to the laboratory, were used in this study. They were kept in the laboratory for two weeks before the onset of the experiments. Mice were maintained under standard laboratory conditions (12-h light: 12-h dark cycle, lights on 07:00 h, T=21±1°C). All animals received food and water ad libitum. All procedures described in this assay were conducted in accordance with the European Community Council's Directive for the ethical treatment of animals (86/609/EEC) and with the approval of the Kocaeli University Medical Faculty (7/3/2014).
(§2) In the FST, EPM, and locomotor activity tests, the animals were treated with Ani-AKH (1 and 2 mg/kg) (n=9-10), Lia-AKH (1 and 2 mg/kg) (n=10-12) and Pht-HrTH (1 and 2 mg/kg) (n=10-12) or vehicle (saline with 1% DMSO) (n= 10) for 14 days (chronically) and the drugs were administered intraperitoneally (i.p.) 60 min. before each test in a volume of 0.1 ml/10 g body weight. Separate group of animals used in each test.
The FST employed was similar to a previously described method (Porsolt et al, 1977). Briefly, the mice were dropped individually into Plexiglas cylinders (height 25 cm, diameter 10 cm) containing 10 cm of water maintained at 23-25°C and left there for 6 min. Because this is a situation from which they cannot escape, the animals rapidly become immobile, that is, floating in an upright position and making only small movements to keep their heads above water. The duration of immobility was recorded during the last 4 min of the 6-min testing period.
(§3) The results of the FST, EPM, locomotor activity tests were evaluated by one-way ANOVA followed by Tukey's post-hoc test when significant differences were detected. The data are expressed as the mean values ± SEM. The differences were considered to be statistically significant when p was less than 0.05.

The test system of data set [2] is BALB/c ByJ mice. As to the kind of experiment: Locomotor activity test (open field). It is filed as in vivo. The following applies: for locomotion enhancing effects in the locomotor activity test: male balb-c mice. The procedure: as §1, §2
Locomotor activity was measured using an open field test in a square arena (40 x 40 x 40 cm box). The animal was placed in the center of the apparatus and behaviours were recorded for a period of 5 min using the Etovision-XT video tracking system. The locomotor activity was evaluated by measuring the total distance travelled (cm) in the apparatus and the speed (cm/s) of the animals.
as §3

In data set [3] the test system is Emperor dragonfly, Anax imperator. The following applies: low concentrations of the synthetic peptide injected into the Emperor dragonfly; cited from earlier work.
The test system of data set [4] is BALB/c ByJ mice. Kind of data set: Elevated Plus-Maze Test (EPM). The data set is classed as in vivo. On the procedure: as §1, §2
In addition, in the EPM (acute) test, Ani- AKH (0.5 and 1 mg/kg) (n= 10 per group) was also administered, just for one time, before the test to investigate the acute effect of the hormone.
Anxiety related behaviour was measured by the elevated plus-maze test. Experiments were conducted in a dimly lit, semi-soundproof room, illuminated with table lamp (80 lux). Maze was made of wood and consisted of two open (29 cm long × 5 cm wide) and closed arms (29 cm × 5 cm with 15 cm high walls) forming a square cross with a 5 cm square center piece. In order to avoid falls the open arms was surrounded by a short (1 cm) Plexiglas edge. The maze was elevated 40 cm above the floor. Each mice was placed at the center of the maze, facing one of the open arms, and was allowed to explore the maze. The open-arm activity was evaluated as: 1) time spent in the open arms relative to the total time spent in the plus maze (300 s), expressed as a percentage 2) number of entries into the open arms relative to the total number of entries into both open and closed arms, expressed as a percentage. These values were accepted as indexes of anxiety in mice.
as §3

In data set [5] the test system is adult females of the firebug, Pyrrhocoris apterus (L.). The following applies: adult female firebugs, cited from earlier work; for walking activity: simultaneously with elevation of lipid level in the haemolymph.
In data set [6] the test system is Albino Swiss mice. The following applies: injection to Albino Swiss mice (20-25 g); cited from earlier work.
Data set [7] relates to Albino Swiss mice. The conditions noted are these: administered intracerebroventricularly to mice; cited from earlier work.
Data set [8] concerns Albino Swiss mice. The conditions noted are these: cited from earlier work.
For data set [9], the system named is Albino Swiss mice. The conditions noted are these: cited from earlier work. The source holds these as a separate data set.
Where [10] appears, read: 2 mg/kg i.p. for 14 days, compared to control, Fig 3a/3c.
Setting [11] is: 2 mg/kg i.p. for 14 days, compared to control, Fig 3b/3d.
The mark [12] stands for this setting: chronic, 1 mg/kg i.p. for 14 days, Fig 2c/2e.
The mark [13] stands for this setting: chronic, 1 mg/kg i.p. for 14 days, Fig 2d/2f.
Setting [14] is: chronic, 2 mg/kg i.p. for 14 days, Fig 2c/2e.
Setting [15] is: chronic, 2 mg/kg i.p. for 14 days, Fig 2d/2f.

As for `CC(C)[C@H](NC(=O)[C@@H]1CCC(=O)N1)C(=O)N[C@@H](CC(N)=O)C(=O)N[C@@H](Cc1ccccc1)C(=O)N[C@@H](CO)C(=O)N1CCC[C@H]1C(=O)N[C@@H](CO)C(=O)N[C@@H](Cc1c[nH]c2ccccc12)C(N)=O` [Ani-AKH, 5-oxo-L-prolyl-L-valyl-L-asparaginyl-L-phenylalanyl-L-seryl-L-prolyl-L-seryl-L-Tryptophanamide] ([pGlu]VNFSPSW-NH2), the immobility time entry in [1] (1 mg/kg i.p. for 14 days) and in data set [1] (2 mg/kg i.p. for 14 days) was “significantly diminished” throughout. Also, the “antidepressant effects in the forced swimming test” value (“antidepressant effects” below) in data set [1] (1 mg/kg i.p.) and in [1] (2 mg/kg i.p.) was “had antidepressant effects” throughout. Further, the total distance moved entry in data set [2] (setting [10]) is on record as “increased”. In addition, the “speed of the animals” value in [2] (setting [11]) was “increased”. For the same molecule, in [2] (2 mg/kg i.p.), the “locomotion enhancing effects in the locomotor activity test” value (from here on “locomotion enhancing effects”) is “had locomotion enhancing effects”. Further, the haemolymph lipid concentration entry in data set [3] is on record as “increased”. For the same molecule, the “%time spent in the open arms” value in data set [4] (acute, 0.5 mg/kg i.p., one time before the test, Fig 2a) is listed as “significantly increased”; in data set [4] (setting [12]) it was “didn't alter”; in [4] (setting [14]) it was “didn't alter”. In addition, the “%open arm/total arm entries” value was “significantly increased” in [4] (acute, 1 mg/kg i.p., one time before the test, Fig 2b); “didn't alter” in data set [4] (setting [13]); “didn't alter” in [4] (setting [15]). Further, the “anxiolytic effects in the elevated plus maze test” value (shortened to “anxiolytic effects”) in [4] (administered acutely, 0.5 mg/kg) was “had anxiolytic effects”; in [4] (administered acutely, 1 mg/kg) it was “had anxiolytic effects”.
`CC(C)[C@H](NC(=O)[C@@H]1CCC(=O)N1)C(=O)N[C@@H](CC(N)=O)C(=O)N[C@@H](Cc1ccccc1)C(=O)N[C@H](C(=O)N1CCC[C@H]1C(=O)N[C@@H](CO)C(=O)N[C@@H](Cc1c[nH]c2ccccc12)C(N)=O)[C@@H](C)O` [Lia-AKH, 5-oxo-L-prolyl-L-valyl-L-asparaginyl-L-phenylalanyl-L-threonyl-L-prolyl-L-seryl-L-Tryptophanamide] ([pGlu]VNFTPSW-NH2): the immobility time entry in [1] (1 mg/kg i.p. for 14 days) and in [1] (2 mg/kg i.p. for 14 days) was “significantly diminished” each time. Moreover, the “antidepressant effects” value in data set [1] (1 mg/kg i.p.) and in [1] (2 mg/kg i.p.) was “had antidepressant effects” throughout. Moreover, the total distance moved entry in [2] (1 mg/kg i.p. for 14 days, compared to control, Fig 3c) is listed as “increased”; in data set [2] (setting [10]) it was “increased”. The “speed of the animals” value in [2] (1 mg/kg i.p. for 14 days, compared to control, Fig 3d) is “increased”; in [2] (setting [11]) it was “increased”. The “locomotion enhancing effects” value in data set [2] (1 mg/kg i.p.) and in data set [2] (2 mg/kg i.p.) was “had locomotion enhancing effects” throughout. Further, in data set [4] (setting [14]), the “%time spent in the open arms” value is listed as “significantly increased”. Further, in data set [4] (setting [15]), the “%open arm/total arm entries” value is “significantly increased”. In data set [4] (given chronically, 2 mg/kg), the “anxiolytic effects” value was “had anxiolytic effects”.
As to `CC(C)C[C@H](NC(=O)[C@@H]1CCC(=O)N1)C(=O)N[C@H](C(=O)N[C@@H](Cc1ccccc1)C(=O)N[C@@H](CO)C(=O)N1CCC[C@H]1C(=O)N[C@@H](CC(=O)O)C(=O)N[C@@H](Cc1c[nH]c2ccccc12)C(N)=O)[C@@H](C)O` [Pht-HrTH, 5-oxo-L-prolyl-L-leucyl-L-threonyl-L-phenylalanyl-L-seryl-L-prolyl-L-alfa-aspartyl-L-Tryptophanamide] ([pGlu]LTFSPDW-NH2), the immobility time result in data set [1] (1 mg/kg i.p. for 14 days) and in data set [1] (2 mg/kg i.p. for 14 days) was “significantly diminished” in each case. The “antidepressant effects” value in data set [1] (1 mg/kg i.p.) and in [1] (2 mg/kg i.p.) was “had antidepressant effects” throughout. In addition, the “locomotion enhancing effects” value in [2] (dose not given, i.p.) is given as “had locomotion enhancing effects”. Moreover, the total distance moved result in data set [2] (dose not printed in the sentence (groups 1 and 2 mg/kg i.p. for 14 days), Fig 3c) is “increased”. Further, the “speed of the animals” value in data set [2] (dose not printed in the sentence (groups 1 and 2 mg/kg i.p. for 14 days), Fig 3d) is reported as “increased”. The “%time spent in the open arms” value in [4] (setting [12]) and in data set [4] (setting [14]) was “significantly increased” throughout. Besides, the “%open arm/total arm entries” value in data set [4] (setting [13]) and in [4] (setting [15]) was “significantly increased” in each case. Also, the “anxiolytic effects” value is recorded as “had anxiolytic effects” in data set [4] (given chronically, 1 mg/kg) and “had anxiolytic effects” in [4] (given chronically, 2 mg/kg).
Regarding `NCCc1ccc(O)c(O)c1` [dopamine], in data set [5], the “AKHs level in haemolymph” value is listed as “decreased”, the “level of AKHs in CNS” value is “no effect”, the “mobilization of the fat body lipids” value is “mobilized” and the walking activity entry is recorded as “capable to enhance”.
Turning to `NCCc1c[nH]cn1` [histamine], the “mobilization of the fat body lipids” value in [5] is “mobilized”.
`NC[C@H](O)c1ccc(O)c(O)c1` [norepinephrine]: in data set [5], the “AKHs level in haemolymph” value was “increased”, the “level of AKHs in CNS” value is “no effect”, the “mobilization of the fat body lipids” value is reported as “mobilized” and the walking activity entry is “capable to enhance”.
On to `NCC(O)c1ccc(O)cc1` (stereo not shown) [octopamine], for which, in data set [5], the “mobilization of the fat body lipids” value was “mobilized”.
As to `NCCc1c[nH]c2ccc(O)cc12` [serotonin], in [5], the “mobilization of the fat body lipids” value is listed as “mobilized”.
On to [pGlu]VNFSPNW-NH2 [periplanetin CC-1], for which, in data set [6], the analgesic activity result is listed as “strong analgesic activity”. In addition, the “peripheral blood glucose level” value in [7] was “did not increase”. The “mortality in pentetrazole-induced seizures” value in [8] is “increased”. Also, the “threshold for tonic seizures” value in data set [8] (pentetrazole-induced seizures) is “decreased”. For the same molecule, the “influence on the electric convulsions” value in data set [9] is listed as “no influence”.
